The target in assay [1] is T1, GST-VCB protein complex (Homo sapiens, UniProt P40337). Put plainly: BODIPY FL VH032 (5)-mediated pVHL FP binding assay (competition). The note with it: for pVHL inhibitory activity in the FP assay: 2.1 pM to 30 μM. As to the method:
It was freshly prepared every time before an experiment. […] The FP signals were determined at the 90-min incubation time. […] The FP signals or the FP signal fold changes were plotted with the GraphPad Prism software. […] The FP Ki values were used to compare the relative binding affinities of the test ligands to pVHL.

Assay [2] deals with T1, GST-VCB protein complex. Briefly: BODIPY FL VH032 (5)-mediated pVHL TR-FRET binding assay (competition). The note with it: for pVHL inhibitory activity in the TR-FRET binding assay: 2.1 pM to 30 μM; for pVHL inhibitory activity in the TR-FRET binding assay / IC50 / Ki: 90-min incubation; for IC50 / Ki: 4 nM BODIPY FL VH032 (5), 2 nM Tb-anti-GST; for Ki: read-out: Ki, pVHL TR-FRET binding assay (Cheng-Prusoff). For orientation: Time-resolved FRET reads energy transfer from a long-lived donor to a nearby acceptor.

In another assay the target is VCB (Homo sapiens, UniProt P40337). The note with it: 10 nM FAM-HIF-1α, 15 nM VCB; read-out: Kd, reported FAM-HIF-1α peptide (19-mer)-based FP assay; cited from earlier work.
Assay [3] concerns the target T1, GST-VCB protein complex. Briefly: Determination of BODIPY FL VH032 (5) binding Kd to GST-VCB protein complex in a TR-FRET binding assay. The note with it: for Kd: 2 nM GST-VCB. The text has this:
For the BODIPY FL VH032 (5)-mediated pVHL TR-FRET binding assay, a reported TR-FRET assay protocol (Lin, et al. (2014) Development of BODIPY FL vindoline as a novel and high-affinity pregnane X receptor fluorescent probe. Bioconjug Chem 25, 1664-1677) was followed except that an Echo 555 Acoustic Liquid Handler (Labcyte Inc., San Jose, CA) was used to dispense chemicals and BODIPY FL VH032 (5), GST-VCB and Tb-anti-GST antibody were used.
The pVHL TR-FRET binding assay buffer has a formula of 50 mM Tris pH 7.5, 0.1% Triton X-100, 0.01% bovine serum albumin, 1 mM DTT. It was freshly prepared every time before an experiment.
Dilutions of BODIPY FL VH032 (5, 1-to-2 dilutions, a concentration range of 0.06 nM to 500 nM) was incubated with 2 nM Tb-anti-GST along with, group 1: 2 nM GST-VCB+DMSO; group 2: 2 nM GST-VCB+VH298 (2, 30 μM); or group 3: without GST-VCB+DMSO. The TR-FRET signals were monitored every 30 min from 30 min to 300 min with a PHERAstar FS plate reader equipped with a TR-FRET optic module (excitation: 340 nm; emission 1: 520 nm; emission 2: 490 nm). The TR-FRET signals were fitted into GraphPad Prism 8.4.3 software (GraphPad Software; San Diego, CA) using a one-site total binding equation to derive curves for each group.

The target of assay [4] is T1, GST-VCB protein complex. Briefly: Determination of BODIPY FL VH032 (5) binding Kd to GST-VCB protein complex in a FP binding assay. The note with it: VH298 30 μM, 1000 nM GST-VCB, 10 nM probe. The procedure: For the BODIPY FL VH032 (5)-mediated pVHL FP binding assay, the general TR-FRET assay protocol was followed except that the […] antibody was not added and the PHERAstar FS plate reader (BMG Labtech; Durham, NC) was equipped with a FP optic module (Excitation: 485 nm, Emission: 520 nm) to read FP assay signals.
The pVHL FP assay buffer has a formula of 25 mM HEPES pH 7.4, 0.01% Tween-20, 0.5 mM DTT, 0.01% BSA. It was freshly prepared every time before an experiment.
BODIPY FL VH032 (5, 10 nM) was incubated with dilutions of GST-VCB (1-to-2 dilutions, a concentration range of 0.03 nM to 1 μM) along with the DMSO group or VH298 (2, 30 μM) group. In addition, BODIPY FL VH032 (5, 10 nM) was incubated with DMSO only, but without GST-VCB. The FP signals were determined with the PHERAstar FS plate reader. The representative data collected at 90-min incubation time was plotted with the GraphPad Prism software using a one-site total binding equation to derive curves for each group. The binding affinity Kd values were derived from the DMSO with GST-VCB.

These results are taken from US20240002458A1, “NOVEL VHL SMALL MOLECULE PROBES” (St. Jude Children's Research Hospital, priority 2020, published 2024).

A word on the IC50: it is the point on the concentration scale where inhibition reaches its midpoint. Low readings indicate greater potency, high ones weaker potency. What is called Ki is a measure of affinity in units of concentration, obtained from inhibition or displacement. The term Kd denotes a measure of binding affinity in units of concentration.

Bounds are passed on as bounds.

As for `NCCCCNC(=O)COc1cccc2c1C(=O)N(C1CCC(=O)NC1=O)C2=O` (stereo not drawn), the “pVHL inhibitory activity in the FP assay” value at GST-VCB protein complex [1] (90-min incubation) was “did not show pVHL inhibitory activity”. Besides, the “pVHL inhibitory activity in the TR-FRET binding assay” value on GST-VCB protein complex [2] is “inactive”.
As to `Cc1ncsc1-c1ccc(CNC(=O)[C@@H]2C[C@@H](O)CN2C(=O)[C@@H](NC(=O)OC(C)(C)C)C(C)(C)C)cc1` [BOC-VH032 (8)], the IC50 was 16.3 µM at GST-VCB protein complex [1] (10 nM BODIPY FL VH032 (5), 100 nM GST-VCB, 90-min incubation) and 4.9 µM on GST-VCB protein complex [2] (2 nM GST-VCB). Moreover, the Ki worked out at 8 µM on GST-VCB protein complex [1] (10 nM BODIPY FL VH032 (5), 100 nM GST-VCB, 90-min incubation, read-out: Ki, pVHL FP assay (Nikolovska-Coleska method)) and 2.1 µM at GST-VCB protein complex [2] (2 nM GST-VCB). The Kd on VCB was 6.5 µM.
In the case of `CC1=CC(C)=[N+]2C1=Cc1ccc(CCC(=O)NCCOCCOCCOCCOCC(=O)NC(C(=O)N3CC(O)CC3C(=O)NCc3ccc(-c4scnc4C)cc3)C(C)(C)C)n1[B-]2(F)F` [BODIPY FL VH032 (5), (2S,4R)-1-4S)-2-(tert-butyl)-21-(5,5-difluoro-7,9-Dimethyl-5H-5Λ^4,6Λ^4-dipyrrolo[1,2-c:2′,1′-f][1,3,2]diazaborinin-3-yl)-4,19-dioxo-6,9,12,15-tetraoxa-3,18-diazahenicosanoyl)-4-hydroxy-N-(4-O-methylthiazol-5-yl)benzyl)pyrrolidine-2-carboxamide], the dissociation constant (Kd) on GST-VCB protein complex [3] (90-min incubation, 2 nM Tb-anti-GST) came out at 0.00301 µM; at GST-VCB protein complex [3] (120-min incubation), 0.00304 µM; at GST-VCB protein complex [3] (150-min incubation) it was 0.00301 µM; at GST-VCB protein complex [3] (180-min incubation), 0.00298 µM; at GST-VCB protein complex [3] (240-min incubation) it was 0.00298 µM; on GST-VCB protein complex [3] (300-min incubation) it was 0.00304 µM. For the same molecule, the “highest TR-FRET signal fold change, 2 nM GST-VCB+DMSO / without GST-VCB+DMSO” value on GST-VCB protein complex [3] (at 3.9 nM BODIPY FL VH032 (5), 90 min) is 16.2 fold. In addition, the “highest TR-FRET signal fold change, 2 nM GST-VCB+DMSO / 2 nM GST-VCB+VH-298 (2)” value on GST-VCB protein complex [3] (at 7.8 nM BODIPY FL VH032 (5), 90 min) came to 15.1 fold.
For the molecule `Cc1ncsc1-c1ccc([C@H](C)NC(=O)[C@@H]2C[C@@H](O)CN2C(=O)[C@@H](N)C(C)(C)C)cc1` [Me-VH032 amine (7)], at GST-VCB protein complex [1] (FP assay, not observed in TR-FRET), the “concentration at which the compound disturbed the FP assay detection (assay interference)” value was at least 370 nM. At GST-VCB protein complex [2] (2 nM GST-VCB), the IC50 amounted to 7.9 µM and the Ki is 3.4 µM.
With `Cc1ncsc1-c1ccc(CNC(=O)[C@@H]2C[C@@H](O)CN2C(=O)[C@@H](NC(=O)COCCOCCOCCOCCN)C(C)(C)C)cc1` [VH032-PEG4-amine (10)], the half-inhibitory concentration (IC50) on GST-VCB protein complex [2] (2 nM GST-VCB) is 0.0059 µM.
Take `Cc1ncsc1-c1ccc(CNC(=O)[C@@H]2C[C@@H](O)CN2C(=O)[C@@H](NC(=O)C2(C#N)CC2)C(C)(C)C)cc1` [VH298 (2), (2S,4R)-1-((S)-2-(1-Cyanocyclopropanecarboxamido)-3,3-dimethylbutanoyl)-4-hydroxy-N-(4-(4-methylthiazol-5-yl)benzyl)pyrrolidine-2-carboxamide]: at GST-VCB protein complex [4], the “FP signal, GST-VCB-mediated non-specific interaction” value turned out to be 43.0 mP. On GST-VCB protein complex [1] (VH298 30 μM, 10 nM probe, 100 nM GST-VCB, 90 min), the “FP signal of the positive control” value is 14.5 mP. Besides, the “TR-FRET signal of the positive control group” value on GST-VCB protein complex [2] (VH298 30 μM, 2 nM GST-VCB, 4 nM probe, all incubation times 30 to 300 min) came to 278.7±4.5 RTU.
`Cc1sc2c(c1C)C(c1ccc(Cl)cc1)=N[C@@H](CC(=O)NCCCCNC(=O)COc1cccc3c1C(=O)N(C1CCC(=O)NC1=O)C3=O)c1nnc(C)n1-2` (stereo partly drawn) [dBET1 (12)]: the “pVHL inhibitory activity in the FP assay” value on GST-VCB protein complex [1] (90-min incubation) was “did not show pVHL inhibitory activity”. For the same molecule, at GST-VCB protein complex [2], the “pVHL inhibitory activity in the TR-FRET binding assay” value is “inactive”.
